Experimental data from US20230263897A1, “CONJUGATE OF GALNAC AND SAPONIN, […] COMPOSITION COMPRISING SAID CONJUGATE AND A GALNAC-OLIGO[…]” (SAPREME TECHNOLOGIES B.V., priority 2020, published 2023).
Read-outs that look alike come from different tables or passages of the source. [BNANC] = BNA^NC bridged nucleic acid sugar; d = 2'-deoxy (DNA)

Columns and labels:
[1] = tested on: primary human hepatocytes; experiment: Cell viability assay (CTG) on primary human hepatocytes; conditions: for IC50 / effect on cell viability: primary human hepatocytes
Procedure: The ‘trivalent-GalNAc’ as depicted in FIGS. 1 and 8 is a typical (GalNAc)3Tris conjugate suitable for coupling to an effector molecule or to saponin. […] Primary hepatocytes express receptor at high density—allow for targeting.
Primary hepatocytes which highly express ASGPR1 (ASGPR1*) and hepatocyte cells of cell-line Huh7 (ASGPR1^+/−) were treated with a concentration range of trivalent-GalNAc-SO1861 (TrivalentGalNAc-SPT001), either or not in the presence of 10 μM CD71-saporin (monoclonal antibody OKT-9 targeting CD71 conjugated to the protein toxin saporin; FIG. 30D).
After treatment the cells were incubated for 72 hr at 37° C. before the cell viability was determined by a CTG-assay, performed according to the manufacturer's instruction (CellTiter-Glo® 2.0 Cell Viability Assay, Promega). Briefly, the cell plate was first equilibarated to RT for 30 minutes. Next, to each well containing 120 μL treatment media 120 μL CTG solution was added. The plate briefly mixed (10 sec, 600 rpm) and incubated for approximately 10 minutes in the dark at RT. Subsequently, the luminescence signal was measured on a Spectramax ID5 plate reader (Molecular Devices). For quantification, the background signal of ‘medium only’ wells was subtracted from all other wells before the cell viability percentage of treated/untreated cells was calculated by dividing the background corrected signal of treated wells over the background corrected signal of the untreated wells (×100).
Cryopreserved primary human hepatocytes (Cytes Biotechnologies S.L., Spain) were thawed in hepatocyte thawing media (Cytes Biotechnologies S.L., Spain). Cells were re-suspended in hepatocyte plating media (Cytes Biotechnologies S.L., Spain). Cells were seeded onto collagen-I coated plates at a density of 215.600 cells/well or 66.600 cells/well for the 48 or 96-well plates (Greiner BioOne). Cells were pre-cultured for 4-6 hrs at 37° C. allowing for cell attachment to cell culture plates before the start of treatment. Plating medium was replaced by 315 μl or 108 μl maintenance media (Cytes Biotechnologies S.L., Spain), after which conjugates were added from a 10× concentrated stock solution in PBS. Plates were incubated for 72 hr at 37° C. being harvested for gene expression and cell viability analysis.

[2] = tested on: ApoB protein; experiment: ApoB protein expression by Huh7 cells; type: cell-based, human
[3] = tested on: ApoB; experiment: ApoB gene silencing (qPCR) in Huh7 cells; type: cell-based, human; conditions: for IC50: + 4000 nM trivalent-GalNAc-L-SO1861
Procedure: (§1) ApoB gene silencing in HepG2 (ASGPR1*) cells or Huh7 (ASPGR1^+/−) was determined. […] Thus, a conjugate comprising a labile bond between any two molecules forming the conjugate or comprised by the conjugate, will be cleaved at a position in the labile linker, therewith dissociating the two linked or bound molecules. An example is the cleavage of a hydrazone bond under acidic conditions as apparent in the endosome and lysosome of mammalian cells such as human cells.
(§2) ApoB gene silencing HepG2 (ASGPR1*) cells and Huh7 (ASPGR1^+/−) cells was determined.
(§3) RNA from cells was isolated and analysed according to standard protocols (Biorad). qPCR primers that were used are indicated in Table A2.

[4] = tested on: ApoB RNA; experiment: ApoB RNA expression analysis on primary human hepatocytes; type: cell-based
Procedure: RNA from cells was isolated using TRI Reagent® Solution (Thermo Scientific) according to the manufacturer's instruction. Conversion into cDNA was performed using iScript™ cDNA Synthesis Kit (BioRad) using standard protocols. ApoB expression levels and levels of specific hepatocyte housekeeping genes were determined using quantitative real-time PCR assays (qRT-PCR) using iTaq™ Universal SYBR® Green Supermix (BioRad) and the Light Cycler 480 (Roche Diagnostics, Rotkreuz, Switzerland) with specific DNA primers, listed in Table A4. Analysis was done by the ΔCt method to determine ApoB expression relative to 2 hepatocyte-specific housekeeping control mRNAs. Each analysis reaction was performed in triplicate.

[5] = tested on: ApoB; experiment: ApoB gene silencing (qPCR) in HepG2 cells; type: cell-based, human
Procedure: as §1, §2, §3

[6] = tested on: HSP27; experiment: HSP27 gene silencing (qPCR) in HepG2 cells; type: cell-based, human; conditions: + 4000 nM SO1861-EMCH
Procedure: (§4) HSP27 gene silencing in HepG2 and Huh7 cells was determined.
as §3

[7] = tested on: HSP27; experiment: HSP27 gene silencing (qPCR) in Huh7 cells; type: cell-based, human; conditions: + 4000 nM SO1861-EMCH
Procedure: as §4, §3

[8] = + 4000 nM trivalent-GalNAc-L-SO1861

CC(=O)OC1C(C)OC(OC2C(C)OC(OC(=O)[C@]34CCC(C)(C)CC3C3=CCC5[C@@]6(C)CC[C@H](OC7OC(C(=O)O)C(O)C(OC8OCC(O)C(O)C8O)C7OC7OC(CO)C(O)C(O)C7O)[C@@](C)(C=O)C6CC[C@@]5(C)[C@]3(C)C[C@H]4O)C(OC3OC(C)C(OC4OCC(O)C(OC5OC(CO)C(O)C(O)C5O)C4O)C(O)C3O)C2O)C(O)C1OC1OCC(O)C(O)C1O (stereo partly shown) [SO1861, reference compound]
IC50 ([1]; read-out: SO1861 IC50 for CD71-saporin mediated cell killing, + 10 μM CD71-saporin (non-effective concentration)): 200 nM

CC(=O)OC1C(C)OC(OC2C(C)OC(OC(=O)[C@]34CCC(C)(C)CC3C3=CCC5[C@@]6(C)CC[C@H](OC7OC(C(=O)O)C(O)C(OC8OCC(O)C(O)C8O)C7OC7OC(CO)C(O)C(O)C7O)[C@@](C)(/C=N/NC(=O)CCCCCN7C(=O)C=CC7=O)C6CC[C@@]5(C)[C@]3(C)C[C@H]4O)C(OC3OC(C)C(OC4OCC(O)C(OC5OC(CO)C(O)C(O)C5O)C4O)C(O)C3O)C2O)C(O)C1OC1OCC(O)C(O)C1O (stereo partly shown) [SO1861-EMCH]
factor of potency increase when cell viability of liver cells is considered ([1]; primary hepatocytes, + 10 μM CD71-saporin): ~10 factor

TrivalentGalNAc-ApoBBNA: conjugate of trivalent GalNAc and the ApoB antisense BNA oligonucleotide ApoBBNA (SEQ ID NO: 2); L or S linker not stated (antisense GCCTCAGTCTGCTTCGCACC; sugars from the 5' end [BNANC]5 d10 [BNANC]5, all phosphorothioate, methylation of C not given here; trivalent GalNAc conjugated via linker, attachment via 5'-thiol C6 linker implied)
lowering of ApoB protein expression ([2]; + 300 nM TrivalentGalNAc-SPT001, FIG. 32B): Neither TrivalentGalNAc-ApoBBNA, nor the combination of TrivalentGalNAc-ApoBBNA and TrivalentGalNAc-SPT001 induce lowering of the ApoB protein expression
lowering of ApoB protein expression ([2]; alone, FIG. 32B): Neither TrivalentGalNAc-ApoBBNA, nor the combination of TrivalentGalNAc-ApoBBNA and TrivalentGalNAc-SPT001 induce lowering of the ApoB protein expression
lowering of ApoB mRNA expression ([3]; + 300 nM TrivalentGalNAc-SPT001, FIG. 31B): Neither TrivalentGalNAc-ApoBBNA, nor the combination of TrivalentGalNAc-ApoBBNA and TrivalentGalNAc-SPT001 induce lowering of the ApoB mRNA expression
lowering of ApoB mRNA expression ([3]; alone, FIG. 31B): Neither TrivalentGalNAc-ApoBBNA, nor the combination of TrivalentGalNAc-ApoBBNA and TrivalentGalNAc-SPT001 induce lowering of the ApoB mRNA expression

trivalent-GalNAc-L-ApoBBNA: ApoBBNA (SEQ ID NO: 2) conjugated to trivalent-GalNAc, labile conjugation, FIG. 6 (antisense GCCTCAGTCTGCTTCGCACC; BNA oligo, pattern not given here, trivalent GalNAc via labile linker, position not given here)
IC50 ([4]; + 250 nM (GalNAc)3-SO1861): 15 nM
IC50 ([4]; + 2000 nM SO1861-EMCH): 8 nM
IC50 ([4]; alone): > 1000 nM
effect on cell viability ([1]; + 250 nM (GalNAc)3-SO1861, FIG. 24 B): without affecting cell viability significantly
effect on cell viability ([1]; alone, FIG. 24 B): no effects on cell viability were observed
IC50 ([1]; read-out: IC50 decreased cell viability, + 2000 nM SO1861-EMCH, FIG. 24 B): 600 nM
IC50 ([5]; + 4000 nM SO1861-EMCH): 10 nM
IC50 [5, 8]: 50 nM
IC50 [3]: 700 nM

trivalent-GalNAc-L-HSP27BNA: HSP27BNA (SEQ ID NO: 1) conjugated to trivalent-GalNAc, labile conjugation, FIG. 6 (antisense GGCACAGCCAGTGGCG; sugars from the 5' end [BNANC]3 d10 [BNANC]3, all phosphorothioate, methylation of C not given here; further chemistry not fully specified)
IC50 [6]: 0.1 nM
IC50 [7]: 3 nM

trivalent-GalNAc-S-ApoBBNA: ApoBBNA (SEQ ID NO: 2) conjugated to trivalent-GalNAc, stable conjugation, FIG. 7 (antisense GCCTCAGTCTGCTTCGCACC; sugars from the 5' end [BNANC]5 d10 [BNANC]5, all phosphorothioate, methylation of C not given here; further chemistry not fully specified)
IC50 ([5]; + 4000 nM SO1861-EMCH): 10 nM
IC50 [5, 8]: 50 nM
IC50 [3]: 700 nM

trivalent-GalNAc-S-HSP27BNA: HSP27BNA (SEQ ID NO: 1) conjugated to trivalent-GalNAc, stable conjugation, FIG. 7 (GGCACAGCCAGTGGCG; sugars from the 5' end [BNANC]3 d10 [BNANC]3, all phosphorothioate, methylation of C not given here; further chemistry not fully specified)
IC50 [6]: 0.1 nM
IC50 [7]: 3 nM
